The results in this text go back to PubChem BioAssay (NCI).

Some test systems named below: TK-10 renal; HCT-15 colon; SN12C renal; DU-145 prostate; HCT-116 colon; SNB-19 CNS; RXF 393 renal; COLO 205 colon; PC-3 prostate; NCI-H522 lung.
Experiment in all cases: DTP human tumour cell line panel, 48 h

≈ marks a conversion by molar mass, not a printed value.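 Growth conditions: 96-well plates. Treatment: test compound, 48 hours, 5 concentrations. Analysis: linear interpolation between bracketing concentrations; unreached endpoints set to highest concentration. GI50 is the concentration that inhibits growth by half. Definition used: TGI = concentration required for complete inhibition of growth.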

As a reminder, the GI50 is the concentration giving 50% growth inhibition. One may read the TGI as the concentration giving total growth inhibition. A high value points to less potent growth arrest. In the case of `CC(=O)c1c(C)nc(SSc2nc(C)c(C(C)=O)c(-c3ccc(Cl)cc3)c2C#N)c(C#N)c1-c1ccc(Cl)cc1`, the GI50 with TK-10 renal was 102 µg/mL (≈ 170 µM); in the test on HCT-15 colon, over 150 µg/mL; in the test on SN12C renal it was 15 µg/mL (≈ 24.9 µM); in the test with DU-145 prostate, 140 µg/mL (≈ 232 µM); in the test on HCT-116 colon it was 94.4 µg/mL; with SNB-19 CNS, 78.4 µg/mL (≈ 130 µM). Also, the results for the GI50 with RXF 393 renal, in the test on COLO 205 colon and with PC-3 prostate were 22.5 µg/mL (≈ 37.2 µM), over 150 µg/mL and over 150 µg/mL, respectively. In addition, the concentration for total growth inhibition (TGI) in the test with TK-10 renal is over 150 µg/mL; in the test on HCT-15 colon it was over 150 µg/mL; with SN12C renal, 15 µg/mL; in the test on DU-145 prostate, over 150 µg/mL; in the test with HCT-116 colon it was over 150 µg/mL; in the test on SNB-19 CNS, over 150 µg/mL. The TGI in the test with RXF 393 renal is 78.4 µg/mL; with COLO 205 colon, over 150 µg/mL; in the test on PC-3 prostate it was over 150 µg/mL.

Regarding `O=C(N/N=C/c1cc(Cl)cc(Cl)c1[O-])c1ccccc1O.O=C(N/N=C/c1cc(Cl)cc(Cl)c1[O-])c1ccccc1O.[Co+2]`, the TGI in the test with TK-10 renal is 12 µM; with HCT-15 colon, 13.8 µM; in the test with NCI-H522 lung it was 1.63 µM; with HCT-116 colon it was 14 µM; in the test with RXF 393 renal, 8.46 µM; in the test on COLO 205 colon, 18.3 µM. The GI50 in the test with HCT-116 colon was 0.552 µM; in the test on COLO 205 colon, 3.8 µM.

`CC(=O)Nc1ccc(C(=O)NN2C(=O)C(Cl)/C2=C/c2ccco2)cc1` (centres undefined): the concentration for total growth inhibition (TGI) with TK-10 renal, in the test on NCI-H522 lung, in the test on HCT-116 colon, in the test with SNB-19 CNS and in the test on COLO 205 colon was over 100 µM each time.

As for `CC(=O)OCC1OC(n2cc(F)c(=O)[nH]c2=O)C(NC(=O)OCc2ccccc2)C(OC(C)=O)C1OC(C)=O` (centres undefined), the TGI with HCT-15 colon, in the test on SN12C renal, in the test with NCI-H522 lung, with HCT-116 colon, with SNB-19 CNS and in the test on RXF 393 renal was over 100 µM each time.

Take `CCP(=O)(CC)C(Cl)Cl`: the TGI with TK-10 renal, in the test with HCT-15 colon, with SN12C renal, in the test on NCI-H522 lung, with DU-145 prostate and in the test with HCT-116 colon was over 100 µM throughout. For the same compound, the TGI in the test with SNB-19 CNS, in the test with COLO 205 colon and with PC-3 prostate was over 100 µM in each case.

Consider `Nc1[nH]nc(Nc2ccc(Cl)cc2)c1P(=O)(c1ccccc1)c1ccccc1`, for which the TGI with TK-10 renal was over 100 µM; with HCT-15 colon it was 98.4 µM; in the test with NCI-H522 lung, 48.5 µM; in the test with DU-145 prostate it was 86.5 µM; in the test with SNB-19 CNS it was 92.4 µM; with RXF 393 renal it was 53.9 µM. In addition, the TGI is over 100 µM in the test on COLO 205 colon and 61.1 µM with PC-3 prostate.
